According to ChEMBL document CHEMBL1158057, “Hydroxylated gedunin derivatives from Cedrela sinensis” (J Nat Prod, 2006):
≈ marks a conversion by molar mass, not a printed value.

These molecules were tested on P388 (assay: Cytotoxicity against mouse P388 cells).
Assay type: functional, cell-based

**Q.** For `CC(=O)O[C@H]1C[C@@]2(C)[C@H](c3ccoc3)OC(=O)[C@H]3O[C@]32[C@@]2(C)[C@H]1[C@@]1(C)C=CC(=O)C(C)(C)[C@@H]1C[C@H]2OC(C)=O`, which IC50 is on record?
**A.** 3.8 µg/mL (≈ 7.03 µM)

**Q.** Which IC50 does the source give for `CC(=O)O[C@@H]1C[C@H]2C(C)(C)C(=O)C=C[C@]2(C)[C@H]2[C@@H](O)C[C@@]3(C)[C@H](c4ccoc4)OC(=O)[C@H]4O[C@]43[C@@]21C` here?
**A.** 5.4 µg/mL (≈ 10.8 µM)

**Q.** Which IC50 does the source give for `CC1(C)C(=O)C=C[C@]2(C)[C@H]3[C@@H](O)C[C@@]4(C)[C@H](c5ccoc5)OC(=O)[C@H]5O[C@]54[C@]3(C)[C@H](O)C[C@@H]12` here?
**A.** 7.8 µg/mL (≈ 17.1 µM)

**Q.** With `CC(=O)O[C@@H]1C[C@H]2C(C)(C)C(=O)C=C[C@]2(C)[C@H]2[C@H](O)C[C@@]3(C)[C@H](c4ccoc4)OC(=O)[C@H]4O[C@]43[C@@]21C` as the molecule, how does the IC50 read?
**A.** 71 µg/mL (≈ 142 µM)

**Q.** How did the IC50 turn out when `CC(=O)O[C@@H]1C[C@@]2(C)[C@H](c3ccoc3)OC(=O)[C@H]3O[C@]32[C@@]2(C)[C@H]1[C@@]1(C)C=CC(=O)C(C)(C)[C@@H]1C[C@H]2OC(C)=O` was run?
**A.** 63 µg/mL (≈ 117 µM)

**Q.** Which IC50 does the source give for `CC1(C)C(=O)C=C[C@]2(C)[C@H]3[C@H](O)C[C@@]4(C)[C@H](c5ccoc5)OC(=O)[C@H]5O[C@]54[C@]3(C)[C@H](O)C[C@@H]12` here?
**A.** > 100 µg/mL

**Q.** Which IC50 does the source give for `CC(=O)O[C@@H]1C[C@H]2C(C)(C)C(=O)C=C[C@]2(C)[C@H]2C(=O)C[C@@]3(C)[C@H](c4ccoc4)OC(=O)[C@H]4O[C@]43[C@@]21C` here?
**A.** 3 µg/mL (≈ 6.04 µM)

**Q.** Which IC50 does the source give for `CC1(C)C(=O)C=C[C@]2(C)[C@H]3CC[C@@]4(C)[C@H](c5ccoc5)OC(=O)[C@H]5O[C@]54[C@]3(C)[C@H](O)C[C@@H]12` [DEACETYLGEDUNIN] here?
**A.** 4.5 µg/mL (≈ 10.2 µM)

**Q.** `CC(=O)O[C@@H]1C[C@H]2C(C)(C)C(=O)C=C[C@]2(C)[C@H]2CC[C@@]3(C)[C@H](c4ccoc4)OC(=O)[C@H]4O[C@]43[C@@]21C` [GEDUNIN] was tested. Which IC50 did it give?
**A.** 3.3 µg/mL (≈ 6.84 µM)
